Source: the Biogen ADME set (Fang et al. 2023)
In brackets after ≈: the same amount, converted by molar mass.

Details: for aqueous solubility: pH 6.8

SMILES	MDR1-MDCK efflux ratio	intrinsic clearance, human liver microsomes [mL/min/kg]	intrinsic clearance, rat liver microsomes [mL/min/kg]	aqueous solubility [µg/mL]	fraction unbound, human plasma	fraction unbound, rat plasma
CCOc1cccc(NS(C)(=O)=O)n1	0.969	≤ 4.74	≤ 10.7	–	–	–
CC(=O)N1CCC(c2ccccn2)CC1	0.791	≤ 4.74	≤ 10.7	48.3 (≈ 237 µM)	–	–
CN1CCN(C(=O)C2(NC(=O)c3cc(Cl)c4c(c3)OCO4)CCCC2)CC1	–	≤ 4.74	37.7	79 (≈ 201 µM)	–	–
O=C(Cc1n[nH]c2ccccc12)N1CCCO1	0.958	≤ 4.74	31.6	–	–	–
Cn1cnnc1-c1cccc(NS(=O)(=O)c2cc3c(cc2Cl)OCCO3)c1	16.9	16	308	–	–	–
CN(C)CCOc1ccc(-c2nc(-c3ccncc3)c(-c3ccc4c(c3)CC/C4=N\O)[nH]2)cc1	4.8	12.7	171	1.1 (≈ 2.43 µM)	–	–
Cc1nn(-c2ccccc2)c(C)c1CN	–	–	–	20.2 (≈ 101 µM)	–	–
Cc1ccc(OCC(=O)Nc2ccncc2)c(C)c1	–	52.5	508	47.1 (≈ 184 µM)	–	–
Cc1cc(C(=O)NC(C)(C)C#N)nn1-c1ccc(F)cc1	1.35	≤ 4.74	19.7	–	–	–
CCOc1nc(-c2ccc(Cl)c(Cl)c2)n(-c2cccc(NC(=O)c3ccc(F)cc3)c2)n1	2.67	–	–	0.25 (≈ 0.53 µM)	–	–
c1ccc(OCc2nc3cc4ccccc4cc3[nH]2)cc1	0.257	–	–	0.29 (≈ 1.06 µM)	–	–
CCN(CC)Cc1cccc(/C=C/c2nc3ccc(F)cc3c(=O)n2-c2ccccc2Cl)n1	8.43	69.4	516	67.5 (≈ 146 µM)	–	–
CN(c1ncccc1CNc1nc(Nc2ccc3c(c2)CC(=O)N3)ncc1C(F)(F)F)S(C)(=O)=O	–	32.2	94.5	94.4 (≈ 186 µM)	–	–
COc1cccc(CN2CCN(C(=O)Cc3ccc(C)cc3)[C@@H](C)C2)c1	0.739	230	988	44 (≈ 125 µM)	–	–
O=C1N[C@@H]2CCN(C(=O)c3ccc(-c4ccccc4)cc3)[C@@H]2C(=O)N1c1ccc(F)cc1	44.4	≤ 4.74	29.7	31.5 (≈ 73.3 µM)	–	–
Nc1nc(N2CCN(CC3CCCC3)C(=O)C2)cc(-n2cccn2)n1	–	47.2	1150	–	–	–
C[C@@H]1CCN(C(=O)CC#N)C[C@@H]1N(C)c1ncnc2[nH]ccc12	41.1	≤ 4.74	120	41.2 (≈ 132 µM)	0.981	0.559
CC(C)(C)OC(=O)NCc1ccc(C(=N)NC(=O)OCc2ccccc2)cc1	2.23	84.3	1300	2.59 (≈ 6.75 µM)	–	–
CC1=NC(Nc2nc(C)c3ccccc3n2)=NC(C)(C)C1	–	–	–	0.66 (≈ 2.35 µM)	–	–

SMILES	MDR1-MDCK efflux ratio	intrinsic clearance, human liver microsomes [mL/min/kg]	intrinsic clearance, rat liver microsomes [mL/min/kg]	aqueous solubility [µg/mL]	fraction unbound, human plasma	fraction unbound, rat plasma
CC(C)c1nnc(NCc2cc(F)cc(F)c2)o1	0.786	≤ 4.74	111	–	–	–
CCC(=O)N(C)CC(=O)Nc1cccc(F)c1	0.705	≤ 4.74	12.2	44.8 (≈ 188 µM)	–	–
Cc1ccc(C)c(NC(=O)CN2CCCN(c3ccc(C(F)(F)F)cn3)CC2)c1	0.959	447	1940	11.9 (≈ 29.4 µM)	–	–
Cc1noc(C)c1CS(=O)(=O)C1CCCc2ccccc21 (stereo not drawn)	0.953	192	1400	–	–	–
CCc1noc(C2CCC(NCC3CCC(F)(F)CC3)CC2)n1 (stereo not drawn)	2.98	54.4	240	75.9 (≈ 232 µM)	–	–
C(=C\c1ccccc1)/CNCc1ccc2c(c1)OCO2	0.337	38.9	573	40.1 (≈ 150 µM)	–	–
O=C(NCc1ccc(F)cc1)C1CCN(C(=O)/C=C/c2ccccc2)CC1	6.17	≤ 4.74	133	8.26 (≈ 22.5 µM)	–	–
Cc1ccc(/C(N)=N/OC(=O)c2ccc3c(c2)OCCO3)cc1	–	–	–	0.33 (≈ 1.06 µM)	–	–
C#CCNC(=O)CCc1c(C)nn(C)c1C	7.96	≤ 4.74	≤ 10.7	60.9 (≈ 278 µM)	–	–
O=c1c(CO)cc2cc3c(cc2n1Cc1ccccn1)CCC3	1.39	12.6	1170	–	–	–
Cc1ccc(C(=O)COC(=O)c2cc(O)nc3ccccc23)cc1	0.502	–	–	0.69 (≈ 2.15 µM)	–	–
Fc1ccc(NCc2cccc(OCCN3CCOCC3)c2)nc1	0.773	10.2	280	39.6 (≈ 120 µM)	–	–
COCc1noc(CNC(=O)N(C)[C@@H](C)c2ccccc2)n1	2.71	≤ 4.74	63.5	–	–	–
Oc1c(C(c2ccc(F)cc2)N2CCCCC2)ccc2cccnc12 (stereo not drawn)	–	35.1	382	–	–	–
Cc1nn(-c2ccc(C(=O)O)cc2C#Cc2ccccc2)c(C)c1C	3.82	≤ 4.74	595	46.4 (≈ 140 µM)	–	–
C1CN(c2nc3c(c(N4CCSCC4)n2)SCC3)CCS1	0.383	126	1530	–	–	–
COc1c(C)cccc1CN1CCC(O)(c2ccc(F)cc2)CC1	0.581	27.8	1280	39.7 (≈ 121 µM)	–	–
CC(C)(C)OC(=O)NCCCC(=O)N[C@H]1C[C@@H](n2cnc3c(NCc4ccccc4)ncnc32)[C@@H](O)[C@H]1O	4.62	110	160	–	–	–
Cc1nc(C2CCNCC2)cc(N(C)C)n1	4.51	≤ 4.74	≤ 10.7	38.5 (≈ 175 µM)	–	–

SMILES	MDR1-MDCK efflux ratio	intrinsic clearance, human liver microsomes [mL/min/kg]	intrinsic clearance, rat liver microsomes [mL/min/kg]	aqueous solubility [µg/mL]	fraction unbound, human plasma	fraction unbound, rat plasma
Cc1c(C(=O)Nc2ccc(CO)cc2)nnn1Cc1ccc(Cl)c(Cl)c1	0.564	5.12	50.8	–	–	–
COCC(=O)Nc1ccc(NC(=O)Cc2ccc(C(F)(F)F)cc2)cc1	1.08	32.8	88.9	–	–	–
Cc1ccc(OCC2(O)CCN(CC3(O)CCN(c4ccccc4C)CC3)CC2)cc1	0.655	400	–	–	0.00911	–
O=C(CSC1CCCC1)N1CCC(Cn2cccn2)CC1	1.6	74.6	747	63.3 (≈ 206 µM)	–	–
OC1CCN(c2ncc(-c3cnccn3)c(-c3cccs3)n2)CC1	1.14	7.01	≤ 10.7	47.9 (≈ 141 µM)	–	–
Cc1cccn(Cc2cccc(F)c2)c1=O	0.652	≤ 4.74	72	23.9 (≈ 110 µM)	–	–
COCC1(CNS(=O)(=O)c2ccccc2)CCC1	0.696	30.7	996	–	–	–
O=C(CN1CCCC(c2cncc(-c3cccc(Cl)c3)n2)C1)N1CCCC1 (stereo not drawn)	1.73	86.6	1080	65.8 (≈ 171 µM)	–	–
N#Cc1cc(Oc2ccc3c(c2)CCC3)ncn1	0.408	66.7	283	–	–	–
c1nc(NC2CCN(C3CC3)CC2)c2sccc2n1	1.24	17.4	80.6	56.2 (≈ 205 µM)	–	–
COCCN(C)C(=O)c1ccc(-c2cccc(-c3noc(C)n3)c2)cc1	0.878	11.4	75.2	–	–	–
CN1CC(=O)N(CCCC(=O)Nc2cccc(C#Cc3cccs3)c2)C1=O	4.28	19.7	738	43.2 (≈ 113 µM)	–	–
COc1ccc(-n2c(Cn3cnc(C#N)n3)nc3ccccc32)cc1	1.37	5	664	36 (≈ 109 µM)	–	–
O=C1NCCN(C(=O)c2ccc3nccn3c2)C1c1ccccc1C(F)(F)F (stereo not drawn)	7.15	≤ 4.74	37.5	69.6 (≈ 179 µM)	0.71	0.633
O=c1c2oc3ccccc3c2ncn1Cc1ccc(F)c(F)c1	0.537	81.2	788	–	–	–
NC1CCCC(C(=O)N2CCC(c3c[nH]c4ncccc34)CC2)C1 (stereo not drawn)	1.5	≤ 4.74	–	–	0.566	–
CN1N=C(SCc2ccc(Cl)cc2Cl)Sc2c1cnn(C)c2=O	–	137	1890	–	–	–
N#Cc1ccccc1Cn1nnc(-c2ccccc2)n1	0.448	10.7	211	11.4 (≈ 43.8 µM)	–	–
Cc1ccc(C(=O)N(C)Cc2ccccn2)c(O)c1	–	≤ 4.74	479	–	–	–
